We go through 20 molecules from patent US5468875A, “1-azabicycloheptane derivatives” (American Home Products Corporation, priority 1994, dated 1995).

Like-named read-outs stand apart in the source and are kept apart here.

Data set [1] deals with T1, M1 acetylcholine receptors (Homo sapiens, UniProt P11229).
T1 sequence (P11229 1-460): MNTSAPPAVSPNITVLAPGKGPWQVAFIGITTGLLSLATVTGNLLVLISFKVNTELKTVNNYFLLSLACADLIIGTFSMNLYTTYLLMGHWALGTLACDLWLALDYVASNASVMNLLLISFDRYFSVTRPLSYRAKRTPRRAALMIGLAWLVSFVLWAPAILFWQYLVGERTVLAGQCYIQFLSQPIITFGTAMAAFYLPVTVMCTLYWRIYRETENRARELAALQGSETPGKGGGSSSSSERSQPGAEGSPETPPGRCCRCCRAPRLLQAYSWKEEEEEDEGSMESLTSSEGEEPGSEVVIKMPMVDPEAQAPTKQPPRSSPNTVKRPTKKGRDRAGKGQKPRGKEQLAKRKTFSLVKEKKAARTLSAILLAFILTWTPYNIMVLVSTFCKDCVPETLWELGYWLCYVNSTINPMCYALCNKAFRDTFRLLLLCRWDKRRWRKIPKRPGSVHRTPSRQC
In words: stimulation of phosphoinositide (PI) hydrolysis in CHO cells transfected with M1 receptor cDNA. It is filed as cell-based. As to conditions: for Emax: CHO, 1 h; for functional m1 muscarinic agonism: exo versus endo, in words; for EC50: m1 receptors in CHO cells, read-out: % PI Hydrolysis ml receptors in CHO cells ED50.

In another data set the target is m1 receptor (Homo sapiens, UniProt P11229). Nature of the data set: biochemical. The note with it: ml 3H QNB Binding in CHO cells Ki, 0.23 nM [3H]QNB, 37° C., one hour.
Data set [2] deals with scopolamine disrupted rat performance. Nature of the data set: eight arm radial maze test, scopolamine disrupted performance. Format: in vivo, Sprague-Dawley male rats. As to conditions: ip, rats, test compound i.p., scopolamine HBr 0.3 mg/kg, s.c., read-out: minimum effective dose (MED), reversal of scopolamine disrupted rat performance. The protocol: The compound of Example 3 was also tested in the eight arm radial maze test procedure in which Sprague-Dawley male rats at 85% of their free feeding weight are trained to obtain two food pellets from food cups placed at the ends of four of the eight arms radiating from a circular central area of the maze, in a five minute period. After training to a level of error (rerum to a previously entered arm is error) equal to or less than 2, the rats performance is disrupted with scopolamine HBr (0.3 mg/kg, s.c.) and test compound dosage (i.p.). The number of errors are then determined and compared with control receiving scopolamine alone.

For data set [3], the system named is scopolamine treated animals. In words: reversal of scopolamine-induced hyperactivity, swim tank test. The note with it: Mus musculus, ip, 5 min, mice, scopolamine.HBr 0.3 mg/kg i.p., swim distance, read-out: minimum effective dose (MED), reversal of hyperactivity of scopolamine treated animals. Format: in vivo, Male CFW mice. The protocol:
The compound of Example 3, representative of the other compounds of this invention, was also tested in accordance with the procedure of Symons et al, Soc. Neuroscience Abstracts 12:2, 897 (1986) in which Male CFW mice, 25 to 35 grams in weight are given the test compound in suitable vehicle plus 0.3 mg/kg scopolamine.HBr in suitable vehicle, i.p.(3 groups of 12 animals each) or vehicle alone (1 group of 12 animals ) or vehicle plus scopolamine.HBr (1 group of 12 animals). The mice are placed in a swim tank, individually, containing 10 cm H2 O for a period of 5 minutes and the distance each animal swims is recorded.

The test system of data set [4] is patients with mild to moderate Alzheimer's Disease. As to conditions: cited from earlier work; for improvement in memory: patients with mild to moderate Alzheimer's Disease.
The conditions of data set [5]: cited from earlier work.
For the next data set, the system named is muscarinic. As to conditions: cited from earlier work.
Another data set deals with m1 receptors. As to conditions: cited from earlier work.
The mark [6] stands for this setting: read-out: % PI Hydrolysis ml receptors in CHO cells 30x Ki (μM) carb=100%.
[7] abbreviates: read-out: % PI Hydrolysis ml receptors in CHO cells maximum % carbachol=100%.

The Ki is the dissociation constant of the complex between target and ligand, obtained from inhibition or displacement. The low end stands for a stronger hold on the target, the high end for a looser hold on the target.

On to `CNC(=O)O[C@H]1CN2CC[C@H]1C2` (relative stereo) [Example 1, (exo)-Methylcarbamic acid 1-aza-bicyclo[2.2.1]hept-3-yl ester], for which the Emax in data set [1] (setting [6]) was determined as 61.9%. In addition, in data set [1] (setting [7]), the Emax is 54.9%. Besides, in data set [1], the “functional m1 muscarinic agonism” value is reported as “enhanced muscarinic agonism” and the EC50 came to 6.9 µM. On m1 receptor, this molecule displayed a Ki of 29.3 µM. Consider `CNC(=S)O[C@H]1CN2CC[C@H]1C2` (relative stereo) [Example 4, (exo)-Methylthiocarbamic acid 1-aza-bicyclo[2.2.1]hept-3-yl ester], for which the Emax in data set [1] (setting [6]) came out at 21.8%. Moreover, the Ki at m1 receptor is 3.72 µM. In turn, `O=C(NCC(F)(F)F)O[C@H]1CN2CC[C@H]1C2` (relative stereo) [Example 9, (exo)-(2.2.2-Trifluoroethyl)carbamic acid 1-aza-bicyclo[2.2.1]hept-3-yl ester] yielded an inhibition constant (Ki) on m1 receptor of 14.5 µM.

As to `O=C(NC1CC1)O[C@H]1CN2CC[C@H]1C2` (relative stereo) [Example 11, (exo)-Cyclopropylcarbamic acid 1-aza-bicyclo[2.2.1]hept-3-yl ester], in data set [1] (setting [6]), the Emax was determined as 10.1%. The molecule further registered a Ki on m1 receptor of 1.81 µM.

For `CNC(=O)O[C@H]1CN2CC[C@@H]1C2` (relative stereo) [endo azacycloheptane analog], the “functional m1 muscarinic agonism” value in data set [1] was “not”. In turn, `CNC(=O)O[C@H]1CN2CC[C@H]1C2` (single isomer, unassigned) [Example 2, (+)-(exo)-Methylcarbamic acid 1-aza-bicyclo[2.2.1]hept-3-yl ester] returned an inhibitory constant (Ki) on m1 receptor of 41.8 µM. In addition, the minimal effective dose in data set [2] is 1 mg/kg.

Take `CNC(=O)O[C@H]1CN2CC[C@H]1C2` (single isomer, unassigned) [Example 3, (-)-(exo)-Methylcarbamic acid 1-aza-bicyclo[2.2.1]hept-3-yl ester]: the values for the Emax in data set [1] (setting [6]) and in data set [1] (setting [7]) were 71.9% and 68.7%, respectively. For the same molecule, in data set [1], the EC50 worked out at 9.8 µM. Further, the affinity at m1 receptor corresponds to a Ki of 26.6 µM. The minimal effective dose in data set [3] amounted to 30 mg/kg. Regarding `CNC(=S)O[C@H]1CN2CC[C@H]1C2` (single isomer, unassigned) [Example 5, (+)-(exo)-Methylthiocarbamic acid 1-aza-bicyclo[2.2.1]hept-3-yl ester], the Emax in data set [1] (setting [7]) was determined as 51.5%. Besides, the EC50 in data set [1] was 2.9 µM. In addition, the inhibitory constant (Ki) on m1 receptor was found to be 6.93 µM. On to `CNC(=S)O[C@H]1CN2CC[C@H]1C2` (single isomer, unassigned) [Example 6, (-)-(exo)-Methylthiocarbamic acid 1-aza-bicyclo[2.2.1]hept-3-yl ester], for which the “% PI Hydrolysis ml receptors in CHO cells maximum % carbachol=100%” value in data set [1] (cho cells, 60 min) is 69.7%. Also, the EC50 in data set [1] was 6.3 µM. On m1 receptor, this molecule had a Ki of 14.5 µM. Consider `CCNC(=O)O[C@H]1CN2CC[C@H]1C2` (single isomer, unassigned) [Example 7, (+)-(exo)-Ethylcarbamic acid 1-aza-bicyclo[2.2.1]hept-3-yl ester], for which the inhibition constant Ki on m1 receptor was found to be 14.3 µM. With `CCNC(=O)O[C@H]1CN2CC[C@H]1C2` (single isomer, unassigned) [Example 8, (-)-(exo)-Ethylcarbamic acid 1-aza-bicyclo[2.2.1]hept-3-yl ester], the Emax in data set [1] (setting [6]) is 58.8%. The same molecule yielded an inhibition constant (Ki) on m1 receptor of 21.5 µM. `O=C(NCC(F)(F)F)O[C@H]1CN2CC[C@H]1C2` (single isomer, unassigned) [Example 10, (-)-(exo)-(2.2.2-Trifluoroethyl)carbamic acid 1-aza-bicyclo[2.2.1]hept-3-ylester] had an inhibition constant Ki on m1 receptor of 17.6 µM.

Molecule `O=C(NC1CC1)O[C@H]1CN2CC[C@H]1C2` (single isomer, unassigned) [Example 12] showed an inhibitory constant (Ki) on m1 receptor of 20.5 µM. On to `C#CCNC(=O)O[C@H]1CN2CC[C@H]1C2` (single isomer, unassigned) [Example 13, (-)-(exo)-Propargylcarbamic acid 1-aza-bicyclo[2.2.1]hept-3-yl ester], for which the Emax in data set [1] (setting [6]) came to 39.4%. This molecule also showed a Ki at m1 receptor of 14.5 µM. As for `COC(=O)C1=CCCN(C)C1` [Arecoline, arecoline], the improvement in memory entry in data set [4] is “demonstrated memory improvement in patients with mild to moderate Alzheimer's Disease”. Further, the half-life result in data set [5] is on record as “short half-life”. `CNC(=O)OC1CN2CCCC1C2` (stereo not drawn) [exo-1-azabicyclo[3.2.1oct-6-yl-N-methylcarbamate]: the muscarinic activity entry in the data set with muscarinic is on record as “having muscarinic activity”.

With `CN(C)C(=O)OC1CC2CCCN(C2)C1` (stereo not drawn) [exo-1-azabicyclo[3.3.1]non-3-yl-N,N-dimethylcarbamate], the muscarinic activity entry in the data set with muscarinic was “having muscarinic activity”.

As for `CNC(=O)OC1CC2CCCN(C2)C1` (stereo not drawn) [exo-1-azabicyclo[3.3.1]non-3-yl-N-methylcarbamate], the muscarinic activity result in the data set with muscarinic is reported as “having muscarinic activity”.

On to `C[C@@H]1O[C@H](C[N+](C)(C)C)C[C@H]1O` [muscarine], for which the “activation of m1 receptors” value in the data set on m1 receptors is listed as “able to fully activate m1 receptors”. `Nc1c2c(nc3ccccc13)CCCC2` [tactine]: the adverse side effects result in data set [4] (higher doses) was “adverse side effects especially at the higher doses where it is most effective”. Moreover, the improvement in memory entry in data set [4] is on record as “improvement in memory can be shown in patients with mild to moderate Alzheimer's Disease”.
